From ChEMBL document CHEMBL5649166, “RIP3 induces apoptosis independent of pronecrotic kinase activity” (Mol Cell, 2014) come the findings set out here.

Test [1] deals with Mitogen-activated protein kinase 14 (Homo sapiens) (UniProt Q16539). The experiment in a line: Inhibition of human P38a/MAPK14 using myelin basic protein as substrate at 1 uM in presence of 32P-ATP by Hotspot assay relative to control; values are per cent of control.
In test [2] the target is T1, Mitogen-activated protein kinase kinase kinase 7 (Homo sapiens) (UniProt O43318).
T1 sequence (whole entry): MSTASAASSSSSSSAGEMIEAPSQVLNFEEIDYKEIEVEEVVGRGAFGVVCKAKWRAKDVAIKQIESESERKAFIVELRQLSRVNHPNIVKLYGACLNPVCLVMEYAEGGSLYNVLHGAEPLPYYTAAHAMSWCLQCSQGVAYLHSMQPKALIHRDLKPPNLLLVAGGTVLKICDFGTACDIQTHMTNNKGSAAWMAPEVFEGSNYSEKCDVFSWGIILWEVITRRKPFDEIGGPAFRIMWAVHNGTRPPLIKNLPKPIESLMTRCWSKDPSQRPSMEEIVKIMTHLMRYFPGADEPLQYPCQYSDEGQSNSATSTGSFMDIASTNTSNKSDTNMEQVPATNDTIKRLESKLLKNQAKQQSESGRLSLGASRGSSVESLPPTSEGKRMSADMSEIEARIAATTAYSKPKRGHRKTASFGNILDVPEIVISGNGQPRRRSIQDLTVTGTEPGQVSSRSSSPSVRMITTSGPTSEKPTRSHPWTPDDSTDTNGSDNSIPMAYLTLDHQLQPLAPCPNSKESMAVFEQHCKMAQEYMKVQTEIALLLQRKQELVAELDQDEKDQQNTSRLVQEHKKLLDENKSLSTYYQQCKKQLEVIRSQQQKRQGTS
The experiment in a line: Inhibition of human TAK1 using casein as substrate at 1 uM in presence of 32P-ATP by Hotspot assay relative to control; values are per cent of control.

Test [3] addresses T2, Ephrin type-B receptor 1 (Homo sapiens) (UniProt P54762).
T2 sequence (whole entry): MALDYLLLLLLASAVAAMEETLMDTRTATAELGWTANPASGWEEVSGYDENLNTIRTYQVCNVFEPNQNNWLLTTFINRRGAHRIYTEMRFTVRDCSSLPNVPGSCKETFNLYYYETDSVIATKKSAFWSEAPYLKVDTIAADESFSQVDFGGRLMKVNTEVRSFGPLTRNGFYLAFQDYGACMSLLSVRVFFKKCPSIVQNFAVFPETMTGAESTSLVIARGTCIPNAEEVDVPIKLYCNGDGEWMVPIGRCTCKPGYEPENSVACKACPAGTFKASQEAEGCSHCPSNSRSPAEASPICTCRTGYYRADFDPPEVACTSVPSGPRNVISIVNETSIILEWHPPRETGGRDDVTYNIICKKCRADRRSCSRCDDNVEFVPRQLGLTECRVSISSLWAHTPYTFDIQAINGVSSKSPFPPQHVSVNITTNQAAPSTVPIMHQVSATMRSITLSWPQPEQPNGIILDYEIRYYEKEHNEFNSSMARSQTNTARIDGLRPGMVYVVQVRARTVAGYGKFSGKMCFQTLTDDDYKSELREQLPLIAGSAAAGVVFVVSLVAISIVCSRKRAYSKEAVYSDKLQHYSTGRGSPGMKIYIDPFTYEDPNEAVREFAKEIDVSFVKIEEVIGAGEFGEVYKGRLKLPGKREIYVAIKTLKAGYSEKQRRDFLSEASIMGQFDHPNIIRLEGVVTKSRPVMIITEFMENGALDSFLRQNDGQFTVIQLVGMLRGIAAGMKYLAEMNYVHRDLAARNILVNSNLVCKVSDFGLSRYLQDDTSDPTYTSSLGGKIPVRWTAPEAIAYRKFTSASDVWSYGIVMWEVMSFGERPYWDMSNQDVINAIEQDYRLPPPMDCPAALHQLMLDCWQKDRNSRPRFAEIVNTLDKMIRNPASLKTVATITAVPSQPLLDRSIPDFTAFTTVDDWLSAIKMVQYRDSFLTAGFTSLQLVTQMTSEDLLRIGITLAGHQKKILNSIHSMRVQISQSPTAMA
The experiment in a line: Inhibition of human EPHB1 using poly[Glu:Tyr] (4:1) as substrate at 1 uM in presence of 32P-ATP by Hotspot assay relative to control; values are per cent of control.

Test [4] concerns the target Tyrosine-protein kinase JAK1 (Homo sapiens) (UniProt P23458). Briefly: Inhibition of human JAK1 using poly[Glu:Tyr] (4:1) as substrate at 1 uM in presence of 32P-ATP by Hotspot assay relative to control; values are per cent of control.
For test [5], the target named is Wee1-like protein kinase (Homo sapiens) (UniProt P30291). The experiment in a line: Inhibition of human WEE1 using CDK1 (D146N)/cyclin B1 as substrate at 1 uM in presence of 32P-ATP by Hotspot assay relative to control; values are per cent of control.
Chain of Wee1-like protein kinase (Homo sapiens) (P30291 whole entry, looked up): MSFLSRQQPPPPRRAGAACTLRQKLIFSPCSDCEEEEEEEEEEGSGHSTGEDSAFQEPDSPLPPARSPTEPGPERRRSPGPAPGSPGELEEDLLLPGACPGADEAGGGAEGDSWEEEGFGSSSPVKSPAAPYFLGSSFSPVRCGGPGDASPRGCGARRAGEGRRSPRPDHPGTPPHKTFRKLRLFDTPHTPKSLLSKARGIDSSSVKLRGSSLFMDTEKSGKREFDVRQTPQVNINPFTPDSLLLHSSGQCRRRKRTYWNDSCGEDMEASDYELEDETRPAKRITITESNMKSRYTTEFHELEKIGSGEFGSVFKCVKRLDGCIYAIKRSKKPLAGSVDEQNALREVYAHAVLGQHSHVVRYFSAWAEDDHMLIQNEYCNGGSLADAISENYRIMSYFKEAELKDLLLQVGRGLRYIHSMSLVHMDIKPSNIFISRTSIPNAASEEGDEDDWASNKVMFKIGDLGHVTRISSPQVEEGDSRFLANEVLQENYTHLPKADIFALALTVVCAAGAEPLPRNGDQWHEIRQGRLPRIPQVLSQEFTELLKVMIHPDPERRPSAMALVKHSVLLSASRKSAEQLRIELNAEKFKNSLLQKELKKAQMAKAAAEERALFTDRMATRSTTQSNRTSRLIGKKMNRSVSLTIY
The target of test [6] is Mitogen-activated protein kinase kinase kinase 9 (Homo sapiens) (UniProt P80192). Briefly: Inhibition of human MLK1/MAP3K9 using casein as substrate at 1 uM in presence of 32P-ATP by Hotspot assay relative to control; values are per cent of control.
Chain of Mitogen-activated protein kinase kinase kinase 9 (Homo sapiens) (P80192 whole entry, looked up): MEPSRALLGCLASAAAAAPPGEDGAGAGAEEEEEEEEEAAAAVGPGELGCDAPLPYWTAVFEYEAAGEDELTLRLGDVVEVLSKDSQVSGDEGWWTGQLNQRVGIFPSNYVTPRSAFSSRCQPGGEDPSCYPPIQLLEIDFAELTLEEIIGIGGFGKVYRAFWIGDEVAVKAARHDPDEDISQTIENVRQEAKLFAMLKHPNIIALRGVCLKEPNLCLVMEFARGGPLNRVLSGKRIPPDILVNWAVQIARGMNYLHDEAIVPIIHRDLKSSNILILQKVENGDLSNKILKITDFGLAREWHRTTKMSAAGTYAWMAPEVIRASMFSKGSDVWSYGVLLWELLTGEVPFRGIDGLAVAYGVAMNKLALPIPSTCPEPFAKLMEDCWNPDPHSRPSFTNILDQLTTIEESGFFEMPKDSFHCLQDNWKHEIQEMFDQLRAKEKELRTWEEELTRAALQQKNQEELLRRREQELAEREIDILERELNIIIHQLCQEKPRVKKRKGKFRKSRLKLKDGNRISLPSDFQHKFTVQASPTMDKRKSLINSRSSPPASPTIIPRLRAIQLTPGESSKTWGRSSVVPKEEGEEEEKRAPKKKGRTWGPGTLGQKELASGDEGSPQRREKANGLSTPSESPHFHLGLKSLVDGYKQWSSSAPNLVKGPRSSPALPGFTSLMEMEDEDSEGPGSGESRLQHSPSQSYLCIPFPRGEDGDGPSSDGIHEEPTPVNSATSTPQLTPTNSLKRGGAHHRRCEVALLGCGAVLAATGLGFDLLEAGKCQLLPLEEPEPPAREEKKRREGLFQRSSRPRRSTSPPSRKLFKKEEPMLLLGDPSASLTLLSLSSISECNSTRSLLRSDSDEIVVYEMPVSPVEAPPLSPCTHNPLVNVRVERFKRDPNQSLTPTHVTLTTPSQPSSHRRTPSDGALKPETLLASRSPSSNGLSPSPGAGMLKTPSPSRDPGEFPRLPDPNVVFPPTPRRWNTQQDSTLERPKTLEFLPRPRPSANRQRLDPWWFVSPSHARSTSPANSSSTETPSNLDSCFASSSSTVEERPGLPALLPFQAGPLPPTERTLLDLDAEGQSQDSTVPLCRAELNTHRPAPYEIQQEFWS
In test [7] the target is NT-3 growth factor receptor (Homo sapiens) (UniProt Q16288). Briefly: Inhibition of human TRKC using poly[Glu:Tyr] (4:1) as substrate at 1 uM in presence of 32P-ATP by Hotspot assay relative to control; values are per cent of control.
Chain of NT-3 growth factor receptor (Homo sapiens) (Q16288 32-839 limits assumed): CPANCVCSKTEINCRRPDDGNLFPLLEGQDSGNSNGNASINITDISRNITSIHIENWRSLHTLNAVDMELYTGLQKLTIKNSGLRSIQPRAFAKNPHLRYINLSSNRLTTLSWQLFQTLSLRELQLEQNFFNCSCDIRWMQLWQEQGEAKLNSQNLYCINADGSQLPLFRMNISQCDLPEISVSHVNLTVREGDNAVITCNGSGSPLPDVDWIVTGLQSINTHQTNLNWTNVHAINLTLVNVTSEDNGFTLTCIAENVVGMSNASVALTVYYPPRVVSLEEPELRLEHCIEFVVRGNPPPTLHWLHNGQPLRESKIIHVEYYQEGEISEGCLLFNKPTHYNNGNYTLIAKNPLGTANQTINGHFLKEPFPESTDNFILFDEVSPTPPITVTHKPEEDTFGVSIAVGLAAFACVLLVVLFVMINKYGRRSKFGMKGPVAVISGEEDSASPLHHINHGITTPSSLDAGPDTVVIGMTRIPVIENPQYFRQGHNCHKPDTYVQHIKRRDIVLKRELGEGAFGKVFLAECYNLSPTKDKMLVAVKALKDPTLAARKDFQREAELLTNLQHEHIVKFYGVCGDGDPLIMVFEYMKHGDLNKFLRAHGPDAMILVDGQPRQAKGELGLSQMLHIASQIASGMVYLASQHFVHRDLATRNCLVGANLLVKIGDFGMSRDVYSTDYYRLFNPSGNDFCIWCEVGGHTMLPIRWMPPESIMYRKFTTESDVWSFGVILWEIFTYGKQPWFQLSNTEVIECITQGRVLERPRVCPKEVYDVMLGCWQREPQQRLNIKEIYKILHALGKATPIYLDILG
Test [8] concerns the target Ribosomal protein S6 kinase beta-1 (Homo sapiens) (UniProt P23443). Briefly: Inhibition of human p70S6K/RPS6KB1 using KKRNRTLTK as substrate at 1 uM in presence of 32P-ATP by Hotspot assay relative to control; values are per cent of control.
Test [9] deals with Serine/threonine-protein kinase SIK2 (Homo sapiens) (UniProt Q9H0K1). Briefly: Inhibition of human SIK2 using AMARAASAAALARRR as substrate at 1 uM in presence of 32P-ATP by Hotspot assay relative to control.
Chain of Serine/threonine-protein kinase SIK2 (Homo sapiens) (Q9H0K1 whole entry, looked up): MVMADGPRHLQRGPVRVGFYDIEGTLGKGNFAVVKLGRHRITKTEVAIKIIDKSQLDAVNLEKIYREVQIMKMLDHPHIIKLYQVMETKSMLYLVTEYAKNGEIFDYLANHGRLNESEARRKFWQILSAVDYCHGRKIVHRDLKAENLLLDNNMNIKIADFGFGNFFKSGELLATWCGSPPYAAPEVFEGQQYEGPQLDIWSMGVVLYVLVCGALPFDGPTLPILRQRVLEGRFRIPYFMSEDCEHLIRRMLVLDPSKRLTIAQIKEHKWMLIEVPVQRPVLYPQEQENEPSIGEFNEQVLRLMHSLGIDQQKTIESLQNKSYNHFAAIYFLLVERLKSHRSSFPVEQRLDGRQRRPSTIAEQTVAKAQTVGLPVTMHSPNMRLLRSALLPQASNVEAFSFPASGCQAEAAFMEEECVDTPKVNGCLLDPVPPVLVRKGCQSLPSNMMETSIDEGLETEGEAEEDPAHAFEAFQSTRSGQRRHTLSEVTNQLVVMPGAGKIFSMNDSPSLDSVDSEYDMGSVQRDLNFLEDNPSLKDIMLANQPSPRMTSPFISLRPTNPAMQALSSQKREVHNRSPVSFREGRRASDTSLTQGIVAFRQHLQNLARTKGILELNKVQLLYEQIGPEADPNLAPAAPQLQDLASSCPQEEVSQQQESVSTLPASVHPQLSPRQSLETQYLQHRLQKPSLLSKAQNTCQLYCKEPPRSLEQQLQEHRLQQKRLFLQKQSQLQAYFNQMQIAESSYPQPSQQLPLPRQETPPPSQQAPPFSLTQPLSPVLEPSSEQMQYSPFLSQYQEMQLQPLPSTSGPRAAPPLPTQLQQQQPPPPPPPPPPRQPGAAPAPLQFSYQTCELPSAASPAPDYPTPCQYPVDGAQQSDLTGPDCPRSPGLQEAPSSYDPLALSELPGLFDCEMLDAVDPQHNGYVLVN

Chain of Tyrosine-protein kinase JAK1 (Homo sapiens) (P23458 whole entry): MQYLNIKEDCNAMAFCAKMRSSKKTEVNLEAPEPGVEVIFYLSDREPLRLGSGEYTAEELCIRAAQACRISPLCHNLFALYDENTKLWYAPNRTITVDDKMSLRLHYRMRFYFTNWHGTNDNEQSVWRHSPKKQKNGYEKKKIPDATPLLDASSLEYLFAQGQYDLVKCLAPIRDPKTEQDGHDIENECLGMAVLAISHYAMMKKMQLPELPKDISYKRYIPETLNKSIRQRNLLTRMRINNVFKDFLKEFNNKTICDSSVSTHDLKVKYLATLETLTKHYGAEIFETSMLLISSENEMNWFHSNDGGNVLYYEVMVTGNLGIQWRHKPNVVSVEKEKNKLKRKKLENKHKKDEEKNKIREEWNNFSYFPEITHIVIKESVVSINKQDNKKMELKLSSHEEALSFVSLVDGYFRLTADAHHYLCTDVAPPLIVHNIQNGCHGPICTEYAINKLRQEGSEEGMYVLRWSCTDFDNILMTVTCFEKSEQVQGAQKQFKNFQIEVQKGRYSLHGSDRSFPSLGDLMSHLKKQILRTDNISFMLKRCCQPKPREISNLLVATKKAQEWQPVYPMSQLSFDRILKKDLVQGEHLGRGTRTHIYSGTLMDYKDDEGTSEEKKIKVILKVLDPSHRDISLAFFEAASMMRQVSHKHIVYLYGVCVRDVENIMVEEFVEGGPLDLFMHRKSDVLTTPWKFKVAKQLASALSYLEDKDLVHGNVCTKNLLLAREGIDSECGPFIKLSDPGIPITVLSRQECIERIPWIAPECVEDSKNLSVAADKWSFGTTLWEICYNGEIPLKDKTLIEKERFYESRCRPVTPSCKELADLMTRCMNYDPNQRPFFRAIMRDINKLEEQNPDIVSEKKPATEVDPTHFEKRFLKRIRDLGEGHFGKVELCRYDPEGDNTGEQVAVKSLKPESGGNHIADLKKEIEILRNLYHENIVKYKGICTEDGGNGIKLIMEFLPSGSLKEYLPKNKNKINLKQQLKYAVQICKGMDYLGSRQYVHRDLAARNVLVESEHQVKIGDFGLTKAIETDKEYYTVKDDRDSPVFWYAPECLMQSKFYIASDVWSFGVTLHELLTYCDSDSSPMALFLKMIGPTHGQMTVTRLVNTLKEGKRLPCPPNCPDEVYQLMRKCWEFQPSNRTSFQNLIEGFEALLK
Chain of Mitogen-activated protein kinase 14 (Homo sapiens) (Q16539 whole entry): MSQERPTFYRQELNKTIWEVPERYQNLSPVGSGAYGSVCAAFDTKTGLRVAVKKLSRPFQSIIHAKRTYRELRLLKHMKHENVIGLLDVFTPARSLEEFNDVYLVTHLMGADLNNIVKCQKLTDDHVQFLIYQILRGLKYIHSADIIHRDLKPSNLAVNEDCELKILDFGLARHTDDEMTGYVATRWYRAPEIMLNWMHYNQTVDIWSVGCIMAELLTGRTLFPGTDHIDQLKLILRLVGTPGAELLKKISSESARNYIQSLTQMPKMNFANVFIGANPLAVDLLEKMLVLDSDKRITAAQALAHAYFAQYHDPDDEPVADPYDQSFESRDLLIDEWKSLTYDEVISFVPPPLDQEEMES

Consider `Cc1cc(-c2cnc(N)c3c(-c4ccc5scnc5c4)csc23)n(C)n1`, for which the residual activity in test [1] turned out to be 40.9%; in test [2], 96.2%; in [3], 36.8%; in [4] it was 88.3%; in [5] it was 72.9%; in test [6] it was 102%. In addition, the results for the residual activity in [7] and in test [8] were 95.3% and 93.6%, respectively. The inhibition – broadly, the percentage by which the read-out fell short of the control – in test [9] worked out at 92%.
For `CC(C)S(=O)(=O)c1ccc2nccc(Nc3ccc4scnc4c3)c2c1`, the residual activity in test [1] is 91.5%; in test [2], 97.6%; in [3] it was 79%; in [4] it was 94.9%; in [5] it was 106%; in [6] it was 97%. Further, the results for the residual activity in [7] and in test [8] were 87.2% and 108%, respectively. Besides, the inhibition in test [9] stood at 93.1%.
In the case of `CNC(=O)c1ccc2c(c1)ncn2-c1ccc(CC(=O)OC(C)(C)C)cc1`, the residual activity in [1] was determined as 95.8%; in test [2] it was 106%; in test [3], 104%; in test [4], 98.2%; in test [5], 108%; in test [6], 90.7%. Moreover, the figures for the residual activity in test [7] and in [8] were 98% and 99.1%, respectively. The inhibition in test [9] is 93.2%.
